Reference: PMC8355244, “A fragment-based approach identifies an allosteric pocket that impacts malate dehydrogenase activity” (Communications Biology, 2021)
“And” between values parts separate entries of the source, which are not always exact repeats. Equal entries are not always repeated. Where two headings read alike, the source gives them in different places.

Key:
PfMDH = biological target: T1, PfMDH (Plasmodium falciparum, UniProt Q6VVP7); experiment: Thermal shift assay (TSA); assay type: binding; details: for TSA melting curve raw signal: triplicate columns; for TSA melting curve raw fluorescence signal: three replicate columns
T1 construct: The full-length WT PfMDH gene was cloned into pETM-13; made in house; host or cells: E. coli Rosetta 2 (DE3) pLysS
T1 sequence (Q6VVP7 entry or part of it): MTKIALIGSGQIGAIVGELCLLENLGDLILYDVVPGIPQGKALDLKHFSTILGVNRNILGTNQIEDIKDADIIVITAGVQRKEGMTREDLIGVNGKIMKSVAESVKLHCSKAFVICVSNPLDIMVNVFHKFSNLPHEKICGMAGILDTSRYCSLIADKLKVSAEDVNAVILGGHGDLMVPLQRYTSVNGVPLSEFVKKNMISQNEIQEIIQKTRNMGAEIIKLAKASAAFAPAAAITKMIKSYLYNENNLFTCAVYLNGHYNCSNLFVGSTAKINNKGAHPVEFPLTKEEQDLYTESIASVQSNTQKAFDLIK
Procedure: The TSA experiment was conducted in a BioRad CSX 96 (Biorad). Each reaction consisted of 1 mM of compound (100 mM stock in 100% (v/v) DMSO) and 10 μM PfMDH in 100 mM Na–phosphate buffer pH 7.4, 400 mM NaCl, and 10× Sypro Orange (Invitrogen) for a total volume of 100 μl. Control experiments were performed with 1% (v/v) DMSO. Inflection points were determined using BioRad CFX96™ control software. Generally, a temperature increase of over 1 °C is interpreted as a result of the stabilization of the protein-ligand interaction. On the contrary, a negative shift is considered a destabilization caused by the fragment.

WT PfMDH = biological target: T2, WT PfMDH (Plasmodium falciparum, UniProt Q6VVP7); experiment: Activity screening of 4DT / 4-phenylthiazol-2-amine derivatives (oxidation of malate, absorbance at 340 nm); assay type: biochemical; details: for inhibition at 500 µM: Dunnett's multiple comparisons test, read-out: Mean Diff. (positive control vs. compound); for Slope repl1 / Slope repl2: linear regression slope of absorbance 340 nm vs time; for Slope normalized repl1: slope relative to control = 1, replicate 1; for Slope normalized repl2: slope relative to control = 1, replicate 2
T2 construct: The full-length WT PfMDH gene was cloned into pETM-13; made in house; host or cells: E. coli Rosetta 2 (DE3) pLysS
T2 sequence (Q6VVP7 entry or part of it): as above
Procedure: The oxidation of malate to oxaloacetate was assayed spectrophotometrically in flat-bottomed Corning 96-well microplates in a total volume of 250.0 µl in 50 mM glycine buffer pH 10.2[24] with an additional 400 mM NaCl for protein stability. The increase of absorbance at 340 nm was recorded in kinetic mode using a Tecan Spark multimode microplate reader at 298 K. A mastermix of 50 mM NAD+ and 44 μM PfMDH was used for both the screening and kinetics experiments. The final concentration of protein and cofactor were […], respectively. Positive control groups were set (absence of compound) in the same plate as the treated group. The absorbance from the background noise was subtracted from the data and then a linear regression model was employed in order to get the line slope from the first 5 min of the reaction. The percentage of enzymatic activity has been calculated as described by Eq. (1)1 enzymeactivity(%)=slopetreated/slopepositivecontrol*100
1.3 µL of derivatives of 4-phenylthiazol-2-amine in 100% DMSO were mixed with 237.7 µL of a mastermix of WT PfMDH previously incubated with NAD+. The final compound concentration used in this screening was 500 µM in the presence of 0.5% (v/v) DMSO. The microplate was sealed with silver foil for 1-h incubation at 25–35 °C. Finally, reactions in both the samples and control wells were started upon the addition of 13.0 µL of 5 mM malate). At the end of the experiments, the reaction of the plate was spectrophotometrically assayed at 600 nm in order to identify turbidity due to the low solubility of the compound. All measurements were performed in duplicate.

[1] = 500 µM compound, Dunnett test details, positive control mean 100, n 2, read-out: Mean 2 (mean % enzymatic activity of treated group)
[2] = 500 µM compound, control 100%, replicate 1, read-out: % enzymatic activity repl1
[3] = 500 µM compound, control 100%, replicate 2, read-out: % enzymatic activity repl2

CC(C)c1ccc(-c2csc(N)n2)cc1 [4PA-iPr]
TSA melting curve raw signal (PfMDH; Temperature 25): 8994.553 and 9647.617 and 6438.185 | TSA melting curve raw signal (PfMDH; Temperature 28.5): 8708.714 and 9422.913 and 6243.713 | TSA melting curve raw signal (PfMDH; Temperature 29): 8666.326 and 9387.251 and 6213.386 | TSA melting curve raw signal (PfMDH; Temperature 29.5): 8621.607 and 9346.814 and 6180.231 | TSA melting curve raw signal (PfMDH; Temperature 30): 8573.486 and 9300.135 and 6142.94 | TSA melting curve raw signal (PfMDH; Temperature 30.5): 8522.699 and 9247.509 and 6102.88 | TSA melting curve raw signal (PfMDH; Temperature 31): 8469.615 and 9188.155 and 6059.768 | TSA melting curve raw signal (PfMDH; Temperature 31.5): 8414.733 and 9123.458 and 6015.201 | TSA melting curve raw signal (PfMDH; Temperature 32): 8359.407 and 9056.051 and 5970.18 | TSA melting curve raw signal (PfMDH; Temperature 32.5): 8304.924 and 8988.081 and 5926.995 | TSA melting curve raw signal (PfMDH; Temperature 33): 8252.482 and 8921.905 and 5886.489 | TSA melting curve raw signal (PfMDH; Temperature 33.5): 8202.645 and 8859.372 and 5849.818 | TSA melting curve raw signal (PfMDH; Temperature 34): 8155.604 and 8800.883 and 5816.694 | TSA melting curve raw signal (PfMDH; Temperature 34.5): 8111.732 and 8745.628 and 5787.575 | TSA melting curve raw signal (PfMDH; Temperature 35): 8070.534 and 8693.896 and 5761.965 | TSA melting curve raw signal (PfMDH; Temperature 35.5): 8031.026 and 8644.443 and 5738.964 | TSA melting curve raw signal (PfMDH; Temperature 36): 7993.542 and 8596.911 and 5718.436 | TSA melting curve raw signal (PfMDH; Temperature 36.5): 7957.673 and 8551.007 and 5700.528 | TSA melting curve raw signal (PfMDH; Temperature 37): 7922.464 and 8507.049 and 5684.445 | TSA melting curve raw signal (PfMDH; Temperature 37.5): 7887.874 and 8463.879 and 5669.608 | TSA melting curve raw signal (PfMDH; Temperature 38): 7853.441 and 8420.795 and 5655.816 | TSA melting curve raw signal (PfMDH; Temperature 38.5): 7818.479 and 8377.106 and 5642.728 | TSA melting curve raw signal (PfMDH; Temperature 39): 7782.8 and 8332.642 and 5629.831 | TSA melting curve raw signal (PfMDH; Temperature 39.5): 7746.169 and 8286.504 and 5617.536 | TSA melting curve raw signal (PfMDH; Temperature 40): 7708.198 and 8238.766 and 5605.837 | TSA melting curve raw signal (PfMDH; Temperature 40.5): 7669.164 and 8190.253 and 5594.748 | TSA melting curve raw signal (PfMDH; Temperature 41): 7629.283 and 8141.701 and 5584.57 | TSA melting curve raw signal (PfMDH; Temperature 41.5): 7588.559 and 8093.153 and 5575.514 | TSA melting curve raw signal (PfMDH; Temperature 42): 7547.254 and 8045.202 and 5567.299 | TSA melting curve raw signal (PfMDH; Temperature 42.5): 7505.687 and 7998.361 and 5560.186 | TSA melting curve raw signal (PfMDH; Temperature 43): 7464.06 and 7952.024 and 5554.6 | TSA melting curve raw signal (PfMDH; Temperature 43.5): 7421.867 and 7905.832 and 5550.504 | TSA melting curve raw signal (PfMDH; Temperature 44): 7379.597 and 7859.513 and 5547.899 | TSA melting curve raw signal (PfMDH; Temperature 44.5): 7337.446 | TSA melting curve raw fluorescence signal (PfMDH; Temperature 73.5): 5613.749 and 6203.164 and 5886.042 | TSA melting curve raw fluorescence signal (PfMDH; Temperature 74): 5569.101 and 6153.132 and 5854.081 | TSA melting curve raw fluorescence signal (PfMDH; Temperature 74.5): 5525.043 and 6104.144 and 5823.779 | TSA melting curve raw fluorescence signal (PfMDH; Temperature 75): 5482.121 and 6056.683 and 5794.617 | TSA melting curve raw fluorescence signal (PfMDH; Temperature 75.5): 5439.984 and 6011.409 and 5766.404 | TSA melting curve raw fluorescence signal (PfMDH; Temperature 76): 5398.991 and 5968.463 and 5738.594 | TSA melting curve raw fluorescence signal (PfMDH; Temperature 76.5): 5359.122 and 5928.32 and 5710.64 | TSA melting curve raw fluorescence signal (PfMDH; Temperature 77): 5320.849 and 5890.984 and 5682.195 | TSA melting curve raw fluorescence signal (PfMDH; Temperature 77.5): 5284.278 and 5856.438 and 5652.603 | TSA melting curve raw fluorescence signal (PfMDH; Temperature 78): 5250.129 and 5824.453 and 5622.025 | TSA melting curve raw fluorescence signal (PfMDH; Temperature 78.5): 5218.737 and 5795.085 and 5590.553 | TSA melting curve raw fluorescence signal (PfMDH; Temperature 79): 5190.081 and 5767.8 and 5558.166 | TSA melting curve raw fluorescence signal (PfMDH; Temperature 79.5): 5164.369 and 5742.56 and 5524.814 | TSA melting curve raw fluorescence signal (PfMDH; Temperature 80): 5141.29 and 5718.857 and 5491.376 | TSA melting curve raw fluorescence signal (PfMDH; Temperature 80.5): 5120.384 and 5696.2 and 5457.362 | TSA melting curve raw fluorescence signal (PfMDH; Temperature 81): 5101.31 and 5674.042 and 5422.806 | TSA melting curve raw fluorescence signal (PfMDH; Temperature 81.5): 5083.427 and 5652.313 and 5387.856 | TSA melting curve raw fluorescence signal (PfMDH; Temperature 82): 5065.661 and 5630.45 and 5352.463 | TSA melting curve raw fluorescence signal (PfMDH; Temperature 82.5): 5047.726 and 5608.308 and 5316.196 | TSA melting curve raw fluorescence signal (PfMDH; Temperature 83): 5028.992 and 5585.969 and 5279.628 | TSA melting curve raw fluorescence signal (PfMDH; Temperature 83.5): 5009.082 and 5563.202 and 5242.696 | TSA melting curve raw fluorescence signal (PfMDH; Temperature 84): 4988.359 and 5539.6 and 5205.226 | TSA melting curve raw fluorescence signal (PfMDH; Temperature 84.5): 4967.168 and 5515.215 and 5167.448 | TSA melting curve raw fluorescence signal (PfMDH; Temperature 85): 4945.239 and 5489.971 and 5129.648 | TSA melting curve raw fluorescence signal (PfMDH; Temperature 85.5): 4923.212 and 5463.869 and 5091.727 | TSA melting curve raw fluorescence signal (PfMDH; Temperature 86): 4900.827 and 5436.832 and 5053.765 | TSA melting curve raw fluorescence signal (PfMDH; Temperature 86.5): 4877.872 and 5409.317 and 5016.032 | TSA melting curve raw fluorescence signal (PfMDH; Temperature 87): 4854.433 and 5381.152 and 4978.26 | TSA melting curve raw fluorescence signal (PfMDH; Temperature 87.5): 4830.501 and 5352.422 and 4939.972 | TSA melting curve raw fluorescence signal (PfMDH; Temperature 88): 4805.564 and 5322.651 and 4900.899 | TSA melting curve raw fluorescence signal (PfMDH; Temperature 88.5): 4779.827 and 5291.937 and 4861.053 | TSA melting curve raw fluorescence signal (PfMDH; Temperature 89): 4753.311 and 5260.016 and 4820.436 | TSA melting curve raw fluorescence signal (PfMDH; Temperature 89.5): 4725.882 and 5227.256 and 4779.347 | TSA melting curve raw fluorescence signal (PfMDH; Temperature 90): 4698.144

CC(C)(C)OC(=O)CNC(=O)c1cc(-c2cccs2)on1 [4b]
remaining activity at 500 µM (WT PfMDH; [1]): 21% | inhibition at 500 µM (WT PfMDH; 500 µM compound): 79.5% | remaining activity at 500 µM (WT PfMDH; [2]): 22% | remaining activity at 500 µM (WT PfMDH; [3]): 19% | Slope repl1 (WT PfMDH; 500 µM compound, replicate 1): 0.007266 | Slope repl2 (WT PfMDH; 500 µM compound, replicate 2): 0.006583 | Slope normalized repl1 (WT PfMDH; 500 µM compound): 0.2181 | Slope normalized repl2 (WT PfMDH; 500 µM compound): 0.1879 | remaining activity at 500 µM (WT PfMDH; read-out: enzyme activity): 20%

Nc1nc(-c2ccc(F)c(F)c2)cs1 [1a]
remaining activity at 500 µM (WT PfMDH; [1]): 62% | inhibition at 500 µM (WT PfMDH; 500 µM compound): 38.5% | remaining activity at 500 µM (WT PfMDH; [2]): 64% | remaining activity at 500 µM (WT PfMDH; [3]): 59% | Slope repl1 (WT PfMDH; 500 µM compound, replicate 1): 0.02136 | Slope repl2 (WT PfMDH; 500 µM compound, replicate 2): 0.02071 | Slope normalized repl1 (WT PfMDH; 500 µM compound): 0.6412 | Slope normalized repl2 (WT PfMDH; 500 µM compound): 0.591 | remaining activity at 500 µM (WT PfMDH; read-out: enzyme activity): 62%
